This is an account of results in ChEMBL document CHEMBL1201862, “PubChem BioAssay data set” (2004).

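Cultured in 96-well plates, cells were exposed to test compound for 48 hours across five concentrations. Here, GI50 denotes the concentration required for 50% inhibition of growth.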 The source made the active and inactive calls. Rule as the data show it: active = GI50 up to about 1.1 µM and inactive = higher.

What all share (test): DTP human tumour cell line panel, 48 h
The test system of assay [1] is A498.
The subject of assay [2] is A549.
The test system of assay [3] is BT-549.
In assay [4] the test system is EKVX.
Assay [5] has as its system HCC 2998.
Assay [6] deals with HOP-92.
Assay [7] relates to HT-29.
Assay [8] has as its system M14.
The test system of assay [9] is MCF7.
The test system of assay [10] is MDA-MB-231.
For assay [11], the system named is Malme-3M.
The subject of assay [12] is NCI-H460.
In assay [13] the test system is OVCAR-4.
For assay [14], the system named is SK-MEL-2.
The subject of assay [15] is SK-OV-3.
Assay [16] deals with SNB-75.
The subject of assay [17] is SR.
In assay [18] the test system is SW-620.
The subject of assay [19] is UO-31.
The test system of assay [20] is K562.

For `Cc1cc2c(SCc3ccccc3Cl)nc(N)nc2nc1C`, the GI50 (usually the concentration that inhibits growth by half) was > 100 µM (inactive) in assay [1]; > 100 µM (inactive) in [2]; > 100 µM (inactive) in [3]; > 100 µM (inactive) in assay [4]; > 100 µM (inactive) in assay [5]; 62.4 µM (inactive) in [6]. Also, the GI50 in assay [7], in assay [8], in assay [9], in assay [10], in assay [11] and in assay [12] was > 100 µM (inactive) each time. In addition, the GI50 in [13], in assay [14], in assay [15], in assay [16], in assay [17] and in assay [18] was > 100 µM (inactive) each time. Further, in assay [19], the GI50 was 1.79 µM (inactive).

`N#Cc1c2c(c(Nc3ccc(F)cc3)n3c1nc1ccccc13)CCC2`: the GI50 was 12.9 µM (inactive) in [1]; 5.93 µM (inactive) in [2]; 7.19 µM (inactive) in assay [3]; 11.3 µM (inactive) in [4]; 18.4 µM (inactive) in assay [5]; 6.37 µM (inactive) in assay [6]. For the same compound, the GI50 was 1.87 µM (inactive) in assay [7]; 9.44 µM (inactive) in [20]; 5.89 µM (inactive) in [8]; 3.32 µM (inactive) in assay [9]; 3.61 µM (inactive) in assay [10]; 7.41 µM (inactive) in assay [11]. The GI50 was 7.21 µM (inactive) in [12]; 10 µM (inactive) in assay [13]; 14.3 µM (inactive) in assay [14]; 9.93 µM (inactive) in [15]; 6.18 µM (inactive) in [16]; 10.2 µM (inactive) in assay [17]. For the same compound, the GI50 was 2.43 µM (inactive) in [18] and 2.45 µM (inactive) in assay [19].

Regarding `COc1ccc(/C=C/C(=O)Oc2cc(O)cc(O)c2)cc1`, the GI50 was > 100 µM (inactive) in [1]; 34.8 µM (inactive) in assay [2]; 49.8 µM (inactive) in assay [3]; 56.2 µM (inactive) in assay [4]; 33 µM (inactive) in assay [5]; 93.1 µM (inactive) in [6]. Further, the GI50 was 29.4 µM (inactive) in assay [7]; 22.5 µM (inactive) in assay [20]; 41.4 µM (inactive) in assay [8]; 19.5 µM (inactive) in assay [9]; 35.7 µM (inactive) in assay [10]; 36.6 µM (inactive) in assay [11]. Further, the GI50 in assay [12] is > 100 µM (inactive); in [13] it was 85.5 µM (inactive); in [14], > 100 µM (inactive); in assay [15], > 100 µM (inactive); in assay [16], 38.1 µM (inactive); in assay [17], 25.1 µM (inactive). Moreover, the results for the GI50 in [18] and in assay [19] were 41.1 µM (inactive) and 37.6 µM (inactive), respectively.

As for `Cn1c(=O)c2c(nc(Nc3ccc(Cl)cc3)n3c(=O)n(-c4ccccc4)c(=O)n23)n(C)c1=O`, the GI50 in assay [1], in assay [2], in assay [3], in [4], in assay [5] and in [6] was > 100 µM (inactive) in each case. In addition, the GI50 in [7], in [20], in assay [8], in assay [9], in assay [10] and in assay [12] was > 100 µM (inactive) in each case. Also, the GI50 is > 100 µM (inactive) in [13]; > 100 µM (inactive) in [14]; 15.5 µM (inactive) in assay [16]; > 100 µM (inactive) in assay [17]; > 100 µM (inactive) in assay [18]; > 100 µM (inactive) in assay [19].

As to `Cc1ccc2c(c1)C=CC(C#N)N2C(=O)Oc1ccccc1` (centres undefined), the GI50 in assay [1] was 20.6 µM (inactive); in assay [2], 29.5 µM (inactive); in [3] it was 22.8 µM (inactive); in [4], 18.1 µM (inactive); in assay [5], 16.6 µM (inactive); in [6], 30.2 µM (inactive). Moreover, the GI50 in assay [7] is 18.7 µM (inactive); in assay [20], 23.7 µM (inactive); in assay [8] it was 40.8 µM (inactive); in assay [9], 19.7 µM (inactive); in [10], 38.9 µM (inactive); in [11], 33 µM (inactive). Besides, the GI50 is 29.6 µM (inactive) in assay [12]; 24.7 µM (inactive) in assay [13]; 22.7 µM (inactive) in [14]; 40.6 µM (inactive) in assay [16]; 19.4 µM (inactive) in [17]; 30.5 µM (inactive) in [18]. Also, the GI50 in assay [19] is 27.7 µM (inactive).

For the compound `CCC(=O)NI1OC(=O)c2ccccc21`, the GI50 in assay [1], in [2], in [3], in assay [4], in [5] and in assay [6] was > 100 µM (inactive) in each case. Also, the GI50 in [7] is > 100 µM (inactive); in [20] it was 48.5 µM (inactive); in assay [8], > 100 µM (inactive); in assay [9] it was > 100 µM (inactive); in assay [10], > 100 µM (inactive); in assay [12], > 100 µM (inactive). In addition, the GI50 in [13] was > 100 µM (inactive); in assay [14], > 100 µM (inactive); in [15], > 100 µM (inactive); in assay [16], > 100 µM (inactive); in [17], 36.9 µM (inactive); in assay [18], > 100 µM (inactive). Moreover, the GI50 in assay [19] was > 100 µM (inactive).

As for `CC1(C)[C@@H]2CC[C@@]1(C)CN(CCC[N+](C)(C)C)C2`, the GI50 in assay [1], in [2], in [3], in [4], in [5] and in assay [6] was > 100 µM (inactive) in each case. The GI50 in assay [7], in assay [20], in assay [8], in assay [9], in assay [10] and in [11] was > 100 µM (inactive) each time. The GI50 in assay [12], in assay [13], in assay [14], in assay [15], in assay [16] and in [17] was > 100 µM (inactive) throughout. In addition, the GI50 in [18] and in [19] was > 100 µM (inactive) throughout.

`O=C(C/C(=N/O)C(F)(F)F)c1cccs1`: the GI50 in [1], in assay [2], in assay [3], in assay [4], in assay [5] and in assay [6] was > 100 µM (inactive) throughout. The GI50 in assay [7], in [20], in [8], in [9], in assay [10] and in assay [12] was > 100 µM (inactive) in each case. The GI50 is > 100 µM (inactive) in assay [13]; 30.8 µM (inactive) in [14]; 76.2 µM (inactive) in assay [15]; > 100 µM (inactive) in assay [16]; > 100 µM (inactive) in assay [17]; > 100 µM (inactive) in [18]. For the same compound, in assay [19], the GI50 was > 100 µM (inactive).

In the case of `CCc1nc(N)nc(N)c1-c1ccc([N+](=O)[O-])c(Cl)c1`, the GI50 in [1] is 27 µM (inactive); in assay [2], 0.416 µM (active); in assay [3], 14.9 µM (inactive); in assay [4], 5.74 µM (inactive); in assay [5], 10 µM (inactive); in assay [6], 18.2 µM (inactive). Also, the GI50 in [7] was 1.78 µM (inactive); in assay [20], 0.227 µM (active); in assay [8], 2.65 µM (inactive); in [9] it was 4.55 µM (inactive); in [10] it was 37.3 µM (inactive); in assay [11] it was > 100 µM (inactive). For the same compound, the GI50 in assay [12] is 0.42 µM (active); in assay [13], 46.5 µM (inactive); in assay [14], 34.7 µM (inactive); in [15] it was 27.5 µM (inactive); in assay [16], 28.2 µM (inactive); in assay [17], 1.74 µM (inactive). The GI50 in assay [18] was 1.49 µM (inactive); in [19], 9.04 µM (inactive).

For the compound `O=C1/C(=C/c2ccc(O)c(O)c2)CC/C1=C\c1ccc(O)c(O)c1`, the GI50 is 17 µM (inactive) in assay [1]; 15.7 µM (inactive) in assay [2]; 5.04 µM (inactive) in [3]; 10.7 µM (inactive) in assay [4]; > 21.6 µM (inactive) in assay [5]; 4.17 µM (inactive) in assay [6]. Further, the GI50 in assay [7] was 18.5 µM (inactive); in [20], 3.24 µM (inactive); in assay [8], 3.03 µM (inactive); in [9], 6.15 µM (inactive); in assay [10] it was 28.7 µM (inactive); in [11], > 29.8 µM (inactive). In addition, the GI50 in assay [12] is 9.66 µM (inactive); in assay [13] it was 5.33 µM (inactive); in assay [14], 22.7 µM (inactive); in assay [15] it was 12.1 µM (inactive); in assay [16] it was 6.7 µM (inactive); in assay [17], 2.3 µM (inactive). For the same compound, the GI50 in [18] was 14 µM (inactive); in [19], 2.29 µM (inactive).
